Active and inactive are the calls of the source.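 Rule for the calls: active = compounds giving half or more protection of infected cells from virus-caused growth loss, again on retest; inactive = the rest.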
Test system: CEM cells HIV-1 protection, formazan growth assay
Assay: NCI AIDS Antiviral Assay
Conditions: for IC50: measured here: growth of uninfected CEM cells
How it was run: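 Human CEM cells, uninfected and HIV-1-infected, exposed to five drug concentrations; growth measured by soluble formazan assay and scored as percent protection from infection, with protecting compounds retested.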

Q: For `N#CCC(=O)N/N=C1/C(=O)N(c2ccc(Cl)cc2)C(=O)C(=O)C1c1nc2ccccc2s1` (stereo unspecified), which outcome is on record?
A: inactive

Q: Which EC50 does the source give for `Nc1cc(Cl)c(S(=O)(=O)O)cc1Cl` here?
A: > 200 µM

Q: And the IC50?
A: > 200 µM

Q: With `COC(=O)c1cc(C(=CCCBr)c2cc(Cl)c(OC)c(C(=O)OC)c2)cc(Cl)c1OC` as the molecule, how does the EC50 read?
A: 16.6 µM

Q: And the IC50?
A: 21.9 µM

Q: For `COC(=O)CCCC=C(c1cc(Cl)c(OC)c(C2=NC(C)(C)CO2)c1)c1cc(Cl)c(OC)c(C2=NC(C)(C)CO2)c1`, which outcome is on record?
A: inactive

Q: How did the EC50 turn out when `CCCNCC(O)COc1ccc2c3c(c(=O)oc2c1)CCC3` (stereo unspecified) was run?
A: > 200 µM

Q: What about the IC50 of the same molecule?
A: 87.1 µM

Q: Which EC50 does the source give for `CC(C)(C)C1COP(=O)(c2ccccc2)N(c2ccccc2)C1` (stereo unspecified) here?
A: > 200 µM

Q: And the IC50?
A: 38 µM

Q: Which results are given for `Cc1nc(NCCNCCO)nc2c1C(=O)Nc1ccccc1N2`?
A: EC50: > 200 µM; IC50: 32.4 µM

Q: With `COc1cccc(C(=O)O)c1Cc1cccc2ccccc12` as the molecule, how does the outcome read?
A: inactive

Q: `Cc1ccc(/C=N/Nc2ccccn2)s1` was tested. Which EC50 did it give?
A: > 200 µM

Q: What about the IC50 of the same molecule?
A: > 200 µM

Q: How did the EC50 turn out when `CC[C@]1(Cc2ccc(OC)c(OC)c2)C=[N+]([O-])O[C@H](OC2CCCC2(c2ccccc2)c2ccccc2)[C@@H]1OC(C)=O` (stereo partly specified) was run?
A: > 200 µM

Q: What about the IC50 of the same molecule?
A: 3.8 µM

Q: What does the source list for `Cc1cc(C)nc(NS(=O)(=O)c2ccc(NC(=O)c3cccc4c(Nc5ccc(S(N)(=O)=O)cc5)c5ccccc5nc34)cc2)n1`?
A: EC50: > 55 µM; IC50: 21.9 µM

Q: `[N-]=[N+]=CC(=O)OCC1SCCCS1` was tested. Which EC50 did it give?
A: > 200 µM

Q: And the IC50?
A: > 200 µM

Q: With `CC(=O)OC1CC2C(C)(CCC3C2(C)CCC2(C)C4CC(C)(C)CCC4(C)CCC32C)C1C` (stereo unspecified) as the molecule, how does the EC50 read?
A: > 200 µM

Q: And the IC50?
A: 145 µM

Q: `Cc1cc(Br)cc(C)c1NC(=O)C(=O)C(C(=O)c1ccc(Cl)c(Cl)c1)C1OC(=O)c2ccccc21` (stereo unspecified) was tested. Which EC50 did it give?
A: > 49 µM

Q: What about the IC50 of the same molecule?
A: 6.76 µM

Q: With `NC(=O)CNC(=O)[C@@H]1C[C@@H](OCCC(=O)O)CN1C(=O)OCc1ccccc1` as the molecule, how does the EC50 read?
A: > 200 µM

Q: What about the IC50 of the same molecule?
A: > 200 µM

Q: What does the source list for `CCOC(=O)/C(=C\c1cccc(C#N)c1)P(=O)(OCC)OCC`?
A: EC50: > 537 µM; IC50: 11 µM

Q: For `COC(=O)c1ccc([As](=O)(O)O)cc1C(C)=O`, which EC50 is on record?
A: > 200 µM

Q: And the IC50?
A: 148 µM

Q: For `O=C(O)c1ccccc1C(=O)OC1CC2CC1C1OCC21` (stereo unspecified), which EC50 is on record?
A: > 309 µM

Q: And the IC50?
A: > 309 µM

Q: For `CC(C)(C)C1=NO[C@H]2[C@@H](NC(=O)c3ccccc3)CC[C@@H]12`, which EC50 is on record?
A: > 871 µM

Q: What about the IC50 of the same molecule?
A: 302 µM

Q: What does the source list for `CCOC(=O)CCC(NC(=O)c1ccc(Oc2nc3ccc(C(F)(F)F)cc3nc2-c2ccccc2)cc1)C(=O)OCC` (stereo unspecified)?
A: EC50: > 200 µM; IC50: 195 µM

Q: Which EC50 does the source give for `CO/N=C1/c2sccc2[C@H](NC(=O)C(Cc2ccccc2)NC(=O)OC(C)(C)C)[C@@H]1O` (stereo partly specified) here?
A: > 200 µM

Q: And the IC50?
A: > 200 µM

Q: With `O=C(Nc1ccc2oc3ccc(Cl)cc3c(=O)c2c1)c1ccc(Cl)cc1Cl` as the molecule, how does the EC50 read?
A: > 12.3 µM

Q: What about the IC50 of the same molecule?
A: > 12.3 µM

Q: For `O=C1NC(=S)N/C1=C/c1ccccc1O`, which EC50 is on record?
A: > 200 µM

Q: And the IC50?
A: 123 µM

Q: Which EC50 does the source give for `COC(=O)c1cc(C(=O)c2cc(Br)c(OC)c(C(=O)OC)c2)cc(Br)c1OC` here?
A: > 200 µM

Q: What about the IC50 of the same molecule?
A: 67.6 µM

Q: With `O=C(O)c1ccc(-c2ccc(-c3cc(=S)sc(=O)[nH]3)cc2)cc1` as the molecule, how does the EC50 read?
A: > 263 µM

Q: And the IC50?
A: 89.1 µM

Q: How did the outcome turn out when `COC(=O)CC1N=C(NC#N)N(CCc2c[nH]c3ccccc23)C1=O` (stereo unspecified) was run?
A: inactive

Q: `CC(=O)OC1Cn2ccc[n+]2C1` (stereo unspecified) was tested. Which EC50 did it give?
A: > 200 µM

Q: And the IC50?
A: > 200 µM

Q: For `Brc1cc2[nH]c(-c3ccccc3)c(Br)c2c(Br)c1Br`, which EC50 is on record?
A: > 200 µM

Q: What about the IC50 of the same molecule?
A: 5.13 µM

Q: `CCC1CN2CCc3c([nH]c4ccccc34)C2C[C@@H]1CC(=O)N(C)C` (stereo partly specified) was tested. Which EC50 did it give?
A: > 148 µM

Q: And the IC50?
A: > 148 µM

Q: Which EC50 does the source give for `COc1ccc(C2c3cc4c(cc3OC(Nc3ccccc3)C2C)OCO4)cc1` (stereo unspecified) here?
A: > 200 µM

Q: And the IC50?
A: 24.5 µM

Q: Which results are given for `CC(C)[Si]1(C(C)C)OCC2OC3(CO)C(Oc4nc(=O)ccn43)C2O[Si](C(C)C)(C(C)C)O1` (stereo unspecified)?
A: EC50: > 200 µM; IC50: 18.6 µM

Q: Which EC50 does the source give for `CC(C)CCC[C@@H](C)[C@H]1CC[C@H]2[C@@H]3CC[C@H]4C[C@@H](NC(=O)CC=C(c5cc(Cl)c(O)c(C(=O)O)c5)c5cc(Cl)c(O)c(C(=O)O)c5)CC[C@]4(C)[C@H]3CC[C@]12C` here?
A: 24 µM

Q: And the IC50?
A: 170 µM

Q: For `NCCN1C(=O)c2ccccc2C1(O)c1ccccc1` (stereo unspecified), which EC50 is on record?
A: > 200 µM

Q: What about the IC50 of the same molecule?
A: > 200 µM

Q: For `CCOC(OC1=C(C#N)CCC1)C(C)[Se]c1ccccc1` (stereo unspecified), which EC50 is on record?
A: > 49 µM

Q: What about the IC50 of the same molecule?
A: 26.3 µM

Q: For `CC1=C(C/C=C/c2ccccc2)C(=O)c2ccccc2C1=O`, which outcome is on record?
A: inactive

Q: How did the EC50 turn out when `CN1C(=O)N/C(=C\c2ccc(S(=O)(=O)N/N=C\C(O)C(O)C(O)C(O)CO)cc2)C1=O` (stereo unspecified) was run?
A: > 200 µM

Q: And the IC50?
A: > 200 µM

Q: With `C=C1CCC2C(C)(CO)C(O)CCC2(C)C1CC(O)/C(=C/CO)C(=O)O` (stereo unspecified) as the molecule, how does the outcome read?
A: inactive

Q: Which EC50 does the source give for `Cc1coc2c1[C@@H](O)[C@@]1(C)[C@H](CCC[C@@H]1C)C2` here?
A: > 200 µM

Q: What about the IC50 of the same molecule?
A: 35.5 µM

Q: What does the source list for `O=C(O)C#CC(=O)O`?
A: EC50: > 1580 µM; IC50: > 1580 µM

Q: With `COC(=O)N(CO)CO` as the molecule, how does the EC50 read?
A: > 200 µM

Q: And the IC50?
A: > 200 µM

Q: Which EC50 does the source give for `CC(=O)Nc1cc(Cl)cc2[nH]c(C)nc12` here?
A: > 955 µM

Q: What about the IC50 of the same molecule?
A: 676 µM

Q: For `Cc1c2c(cn1C)NC(=O)CN=C2c1ccccc1`, which EC50 is on record?
A: > 200 µM

Q: And the IC50?
A: > 200 µM

Q: `C=C1c2nc3ccccc3n2C=C(c2ccccc2)N1c1ccc(OC)cc1` was tested. Which EC50 did it give?
A: > 200 µM

Q: What about the IC50 of the same molecule?
A: 12.9 µM

Q: What does the source list for `CCOc1ccc(/C=C2/C(=O)N=C(NC(C)=O)N2C)cc1`?
A: EC50: > 200 µM; IC50: > 200 µM

Q: Which results are given for `COc1ccc([C@]23CCC4(OCC(C)(C)CO4)[C@H]4CON(O[C@H](O[C@@H]5CCCCC5C(C)(C)c5ccccc5)C2)[C@@H]43)cc1OC` (stereo partly specified)?
A: EC50: > 50.1 µM; IC50: > 50.1 µM

Q: Which EC50 does the source give for `O=C1Oc2cc3c(c4cccc1c24)OCN(c1ccccc1)C3` here?
A: > 33.1 µM

Q: And the IC50?
A: 24.5 µM

Q: Which EC50 does the source give for `Nc1ccc2c(c1)C(=O)N(O)C2=O` here?
A: > 1410 µM

Q: And the IC50?
A: 759 µM

Q: Which EC50 does the source give for `CCOC(=O)OC1C(Br)C2CCC1(C)C2(C)C` (stereo unspecified) here?
A: > 200 µM

Q: What about the IC50 of the same molecule?
A: > 200 µM

Q: `N#Cc1c(-c2ccc(NCc3nc4ccccc4[nH]3)cc2)cc(-c2ccco2)[nH]c1=O` was tested. Which EC50 did it give?
A: > 200 µM

Q: And the IC50?
A: 27.5 µM

Q: With `CCN(CC)CC1CCCCCCCCCCC1=O` (stereo unspecified) as the molecule, how does the outcome read?
A: inactive

Q: Which EC50 does the source give for `CC(=O)Oc1cccc2c1ccc1nonc12` here?
A: > 174 µM

Q: And the IC50?
A: 28.2 µM

Q: How did the outcome turn out when `Clc1cccc(-c2sc(-c3ccsc3)cc2Cc2ccsc2)c1` was run?
A: inactive

Q: With `O=C(NCCCCCCNC(=O)c1cnc2ccccc2n1)c1cnc2ccccc2n1` as the molecule, how does the EC50 read?
A: > 83.2 µM

Q: What about the IC50 of the same molecule?
A: > 83.2 µM

Q: Which EC50 does the source give for `COCO[C@@H]1C[C@H]2C(=O)Nc3ccccc3C(=O)N2C1` here?
A: > 200 µM

Q: What about the IC50 of the same molecule?
A: 38 µM

Q: `COc1ccc(NC(=O)CC(=O)N2N=C(C)C(N=Nc3ccc(C(=O)O)cc3)C2=O)cc1` (stereo unspecified) was tested. Which EC50 did it give?
A: > 200 µM

Q: And the IC50?
A: 95.5 µM

Q: Which results are given for `Cc1cnc2sn(-c3ccc(Br)cc3)c(=O)c2c1`?
A: EC50: > 200 µM; IC50: 11.5 µM

Q: Which results are given for `Cc1nnnn1[C@H]1C(C#N)CC2[C@@H]3CCC4=Cc5nnnn5CC[C@]4(C)C3CC[C@@]21C` (stereo partly specified)?
A: EC50: > 85.1 µM; IC50: > 85.1 µM

Q: How did the EC50 turn out when `Nc1ccc2c(c1)Oc1c(F)c(F)cc3c(=O)c(C(=O)O)cn-2c13` was run?
A: > 11.5 µM

Q: And the IC50?
A: 11.2 µM

Q: Which EC50 does the source give for `CCCCc1c2c(nc3c1CCc1cc4cc5c(nc4nc1-3)-c1nc3c(c(CCCC)c1CC5)CCCC3=O)C(=O)CCC2` here?
A: > 100 µM

Q: What about the IC50 of the same molecule?
A: 0.457 µM

Q: Which EC50 does the source give for `CCCCCCCCCCCCCCCCCCOP(=O)(O)OCCC=C(c1cc(Cl)c(O)c(C(=O)O)c1)c1cc(Cl)c(O)c(C(=O)O)c1` here?
A: > 170 µM

Q: What about the IC50 of the same molecule?
A: 63.1 µM

Q: What does the source list for `Cc1ccccc1N=C1SCC(=O)N1c1ccccc1C`?
A: EC50: 141 µM; IC50: 191 µM

Q: `N/C(=N\N=C\c1cc(I)cc(I)c1O)NO` was tested. Which EC50 did it give?
A: > 200 µM

Q: And the IC50?
A: 10.5 µM

Reference: PubChem BioAssay AID179 (DTP/NCI, 2004)
